Test results: patent US8865750B2, “Small molecule inhibitors of RGS proteins” (The Regents of The University of Michigan, priority 2011, dated 2014)
Like-named read-outs stand apart in the source and are kept apart here.

Columns and labels:
RGS8 = RGS8 (Homo sapiens (Human), UniProt P57771); assay: FCPIA: Gαo binding to RGS8; details: for RGS8 Hill Slope: Table 3; for IC50: read-out: RGS8 IC50
From the text: (§1) FCPIA Dose Response and Reversibility Experiments:

HEK293 cells = assay: Calcium mobilization induced by compound alone; format: cell-based; details: for Emax at 10 µM: Homo sapiens, HEK293, read-out: Calcium transient (% 50014); for induction of calcium transient by compound alone: 10 μM, HEK293 cells;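 for Calcium transient (% 50014): percent of response to 10 µM reference CCG-50014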
Description: Calcium Mobilization Experiments:
A stable cell line was developed based upon the HEK-293 Flp-In TREx cell line (Invitrogen, Carlsbad, Calif.) that stably express the muscarinic M3 receptor and have human RGS4 expression under doxycycline control. Cells were maintained in DMEM supplemented with 10% fetal bovine serum and Penicillin (100 units/ml)-Streptomycin (100 μg/ml) under 5% CO2 at 37° C. For experiments, cells were split into 96-well black, clear bottom, poly-D-lysine coated microtiter plates (Nunc, Cat. #152037) at a density of 20,000 cells/well in DMEM containing 10% fetal bovine serum and Penicillin (100 units/ml), Streptomycin (100 μg/ml). RGS4 expression was induced by supplementing the medium with 1 μg/mL doxycycline for 24-48 hours before experimentation. Cells were loaded with Fluo-4 No Wash dye in buffer for 30 minutes at 37° C. Compounds and/or carbachol were added to the wells and the fluorescence intensity was measured using a FlexStation (Molecular Devices, Sunnyvale, Calif.) plate reader. Data analysis was performed by calculating the area under the curve or maximal fluorescence intensity from a 120 second kinetic measurement.

RGS4 = assay: FCPIA: Gαo binding to RGS4; details: for RGS4 Hill Slope: Table 3; for IC50: read-out: RGS4 IC50
From the text: as §1

[1] = Table 3, duplex FCPIA, average of two experiments

Sequence of RGS8 (P57771 other isoform, or with tags, fused parts or gaps): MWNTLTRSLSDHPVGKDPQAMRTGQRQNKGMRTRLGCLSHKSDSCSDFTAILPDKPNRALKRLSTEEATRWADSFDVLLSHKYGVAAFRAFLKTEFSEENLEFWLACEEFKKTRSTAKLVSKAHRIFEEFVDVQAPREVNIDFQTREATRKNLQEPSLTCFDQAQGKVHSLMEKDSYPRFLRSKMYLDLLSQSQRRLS

| Compound | RGS8 Hill Slope (RGS8) | IC50 (RGS8; Table 6, FCPIA) | Emax at 10 µM (HEK293 cells) | RGS4 Hill Slope (RGS4) | IC50 (RGS4; [1]) | induction of calcium transient by compound alone (HEK293 cells) | IC50 (RGS4; Table 6, FCPIA) | IC50 (RGS8; [1]) |
| --- | --- | --- | --- | --- | --- | --- | --- | --- |
| Cc1ccc(-n2sc(=O)n(C)c2=O)cc1 [CCG-203759, 2-p-tolyl-4-methyl-1,2,4-thiadiazolidine-3,5-dione] | −1.06 | 8.4 µM | 238% | −1.56 | 0.019 µM | – | – | – |
| Cn1c(=O)sn(C(C)(C)C)c1=O [CCG-203760, 2-t-butyl-4-methyl-1,2,4-thiadiazolidine-3,5-dione] | −0.89 | 56 µM | 47.2% | −0.99 | 0.028 µM | no ability to induce calcium mobilization | – | – |
| Cc1ccc(-n2sc(=O)n(CC(C)C)c2=O)cc1 [CCG-203761, 2-p-tolyl-4-isobutyl-1,2,4-thiadiazolidine-3,5-dione] | −0.92 | 7.7 µM | 98.9% | −1.47 | – | – | 0.014 µM | – |
| CCn1sc(=O)n(CC(C)C)c1=O [CCG-203762, 2-ethyl-4-isobutyl-1,2,4-thiadiazolidine-3,5-dione] | −0.78 | 70.6 µM | 38.3% | −0.87 | 0.026 µM | no ability to induce calcium mobilization | – | – |
| CC(C)Cn1c(=O)sn(C(C)(C)C)c1=O [CCG-203763, 2-t-butyl-4-isobutyl-1,2,4-thiadiazolidine-3,5-dione] | −0.52 | – | 73.5% | −0.85 | 0.029 µM | – | – | 194 µM |
| CCCCn1sc(=O)n(Cc2ccc(F)cc2)c1=O [CCG-203765, 2-butyl-4-(4-fluorobenzyl)-1,2,4-thiadiazolidine-3,5-dione] | −0.59 | – | 184% | −0.81 | 0.016 µM | – | – | 31.6 µM |
| CCCCn1c(=O)sn(-c2ccc(C)cc2)c1=O [CCG-203767, 2-p-tolyl-4-butyl-1,2,4-thiadiazolidine-3,5-dione] | −0.96 | 9.5 µM | 123% | −1.46 | 0.02 µM | – | – | – |
| CCCCn1c(=O)sn(C(C)(C)C)c1=O [CCG-203768, 2-t-butyl-4-butyl-1,2,4-thiadiazolidine-3,5-dione] | −0.70 | – | 91.7% | −3.18 | 0.054 µM | – | – | 119 µM |
| CCCCn1sc(=O)n(CCCC)c1=O [CCG-203770, 2,4-dibutyl-1,2,4-thiadiazolidine-3,5-dione] | −0.53 | – | 188% | −0.83 | 0.03 µM | – | – | 122 µM |
| O=c1sn(-c2cccc(C(F)(F)F)c2)c(=O)n1Cc1ccccc1 [CCG-203772] | −1.15 | – | 165% | −1.43 | 0.057 µM | – | – | 16.4 µM |
| O=c1sn(-c2cccc(Cl)c2)c(=O)n1Cc1ccccc1 [CCG-203773, 2-(3-chlorophenyl)-4-benzyl-1,2,4-thiadiazolidine-3,5-dione] | −0.87 | 10.9 µM | 199% | −1.25 | 0.033 µM | – | – | – |
| O=c1sn(-c2cccc(C(F)(F)F)c2)c(=O)n1Cc1ccc(F)cc1 [CCG-203775, 2-(3-trifluoromethylphenyl)-4-(4-fluorobenzyl)-1,2,4-thiadiazolidine-3,5-dione] | −1.14 | – | 170% | −0.88 | 0.079 µM | – | – | 16.2 µM |
| O=c1sn(-c2cccc(Cl)c2)c(=O)n1Cc1ccc(F)cc1 [CCG-203776, 2-(3-chlorophenyl)-4-(4-fluorobenzyl)-1,2,4-thiadiazolidine-3,5-dione] | −1.07 | – | 223% | −1.08 | 0.052 µM | – | – | 12.8 µM |
| Cc1ccc(-n2sc(=O)n(Cc3cccc(Cl)c3)c2=O)cc1 [CCG-203777, 2-p-tolyl-4-(3-chlorobenzyl)-1,2,4-thiadiazolidine-3,5-dione] | −1.00 | – | 179% | −0.96 | 0.017 µM | – | – | 17.5 µM |
| Cc1cccc(-n2sc(=O)n(Cc3ccc(F)cc3)c2=O)c1 [CCG-203788, 2-(3-methylphenyl)-4-(4-fluorobenzyl)-1,2,4-thiadiazolidine-3,5-dione] | −1.09 | – | 134% | −1.91 | 0.121 µM | – | – | 7.1 µM |
| CN(C)c1ccc(-n2sc(=O)n(Cc3ccc(F)cc3)c2=O)cc1 [S2, 2-(4-dimethylaminophenyl)-4-(4-fluorobenzyl)-1,2,4-thiadiazolidine-3,5-dione] | −1.28 | 10.3 µM | 111% | −1.65 | – | – | – | 10.3 µM |
| CC(C)(C)c1ccc(-n2sc(=O)n(Cc3ccccc3)c2=O)cc1 [S3, 2-(4-t-butylphenyl)-4-benzyl-1,2,4-thiadiazolidine-3,5-dione] | −0.78 | 17.4 µM | 123% | −1.79 | – | – | – | 17.4 µM |
| O=c1sn(-c2ccc(Cl)cc2)c(=O)n1Cc1ccc(Cl)cc1 [S5, 2-(4-chlorophenyl)-4-(4-chlorobenzyl)-1,2,4-thiadiazolidine-3,5-dione] | −1.36 | 12.7 µM | 141% | −1.48 | – | – | – | 12.7 µM |
| COc1ccc(-n2sc(=O)n(Cc3ccc(Cl)cc3)c2=O)cc1 [S6, 2-(4-methoxyphenyl)-4-(4-chlorobenzyl)-1,2,4-thiadiazolidine-3,5-dione] | −0.91 | 40.2 µM | 104% | −1.73 | – | – | – | 40.2 µM |
| Cc1ccc(Cn2sc(=O)n(Cc3ccc(Cl)cc3)c2=O)cc1 [S8, 2-(4-methylbenzyl)-4-(4-chlorobenzyl)-1,2,4-thiadiazolidine-3,5-dione] | −0.60 | 337 µM | 11.4% | −1.23 | – | – | – | 337 µM |
| Cc1ccc(Cn2c(=O)sn(-c3ccccc3)c2=O)cc1 [S9, 2-phenyl-4-(4-methylbenzyl)-1,2,4-thiadiazolidine-3,5-dione] | −0.87 | 8.3 µM | 12.2% | −1.50 | – | – | – | 8.3 µM |
| Cc1ccc(Cn2c(=O)sn(-c3ccc(Cl)cc3)c2=O)cc1 [S10, 2-(4-chlorophenyl)-4-(4-methylbenzyl)-1,2,4-thiadiazolidine-3,5-dione] | −1.17 | 12.8 µM | 20% | −1.59 | – | – | – | 12.8 µM |
| Cc1ccc(Cn2sc(=O)n(Cc3ccc(C)cc3)c2=O)cc1 [S13, 2,4-bis(4-methylbenzyl)-1,2,4-thiadiazolidine-3,5-dione] | −0.51 | 94.7 µM | 251% | −0.92 | – | – | – | 94.7 µM |
| O=c1sn(-c2ccccc2)c(=O)n1Cc1cccc(Cl)c1 [S14, 2-phenyl-4-(3-chlorobenzyl)-1,2,4-thiadiazolidine-3,5-dione] | −1.47 | 9.4 µM | 57.7% | −1.41 | – | – | – | 9.4 µM |
